Values of other authors as cited in US10117939B2, “Pharmaceutical compositions comprising nebivolol or a nebivolol analogue” (MYLAN PHARMACEUTICALS ULC, priority 2007, dated 2018).

Conditions: as described in EP 0 744 946

SMILES | Dissolution (in words)
Cl.O[C@H](CNC[C@@H](O)[C@H]1CCc2cc(F)ccc2O1)[C@@H]1CCc2cc(F)ccc2O1 (relative stereo) [nebivolol hydrochloride, ((±))-(R*(S*(S*—(S*))))-(alpha),(alpha)′-(iminobis(methylene)bis-(6-fluoro-3,4-dihydro-2H-1-benzopyran-2-methanol)] | poor dissolution
Cl.O[C@H](CNC[C@@H](O)[C@H]1CCc2cc(F)ccc2O1)[C@@H]1CCc2cc(F)ccc2O1 [“micronized” nebivolol hydrochloride] | even worse than material in the normal crystalline form
